Results published in US20210378992A1, “METHODS FOR TREATING A SUBTYPE OF SMALL CELL LUNG CANCER” (Auransa Inc., priority 2018, published 2021).

Assays:
[1] = tested on: human small cell lung cancer sample LU5243; assay: In vivo patient derived xenograft (PDX) study, LU5243 (predicted responder); set-up: species or system mice; conditions: pentamidine 10 or 20 mg/kg IP QD, FIGS. 1 and 2
Procedure: 50 mice were enrolled in the study. 25 mice were randomly allocated to each of two human small cell lung cancer tumor models: LU5181 and LU5243. […] However, expression profile of human LU5243, another SCLC tumor sample, successfully matched with the predicted gene expression signature for pentamidine (e.g., as described above, and in Table 1 and Table 2).
Randomization of the 50 mice was performed using the multi-task method in the Study Log software on day 0. Average tumor volume (mm^3) for each group ±SD at randomization was as follows. […]
Tumor cryovials containing tumor cells were thawed and prepared for inoculation into mice. Cells were washed in PBS, counted, and re-suspended in cold PBS at concentrations of 100,000 viable cells/100 μL. […]
Mice were monitored weekly for palpable tumors, or any changes in appearance or behavior. Once tumors were palpable, they were measured twice a week using calipers. Tumor volume was calculated using the following equation (longest diameter×shortest diameter^2)/2.
Stock solution of pentamidine was made in water at 10 mg/mL. Amount needed for dosing for one week was calculated and was diluted with PBS. […]
Body weight was measured twice a week. […]
For all animals, tumors were collected, weighed, weight recorded and snap frozen. […]

[2] = tested on: biomarker genes of Tables 1, 2 and 3 (INSM1, GADD45G, C1QL1, STAT6, SMAD3, RNF43 and others); assay: Biomarker gene expression after dosing of pentamidine in human SCLC PDX study; assay type: in vivo, mice; conditions: SCLC subtype sensitive to pentamidine
Source text: A computational model was constructed to identify patient subpopulations of small cell lung cancer, leveraging data from 5 different datasets of treatment-naïve human small cell lung cancer biopsies (Gene Expression Omnibus identifiers GSE30219, GSE43346, GSE50451; George et al. (2015) Nature 524:47-53; and Rudin et al. (2012) Nat. Genet. 44:1111-1116). Pentamidine was a strong match to one SCLC subpopulation identified by the model. Potential biomarker genes for each subpopulation were discovered using another modeling approach. […] Among the 41 genes (see Tables 1, 2 and 3), the following six genes were selected for further study: INSM1, GADD45G, C1QL1, STAT6, SMAD3 and RNF43.
For all animals, tumors were collected, weighed, weight recorded and snap frozen. Blood for plasma isolation was taken from each animal at 4 hours after dosing. All samples collected from this study were stored in −80° C. For Group01-03, any time that an animal has to be taken down prior to normal end of study termination, the animal was dosed and sampled 4 hours after the dose was given. For group04, tumors were collected 4 hours after the third dose was given. Tumors were weighed and snap-frozen.

N=C(N)c1ccc(OCCCCCOc2ccc(C(=N)N)cc2)cc1 [Pentamidine, 1,5-Bis(4-amidinophenoxy)pentane]
efficacy in PDX model (tumor volume) [1]: significant efficacy
expression of genes in Table 1 (INSM1, GADD45G, C1QL1) upon treatment with pentamidine ([2]; high expression biomarkers): repressed nearly to normal levels
expression of genes in Table 2 (STAT6, SMAD3, RNF43) upon treatment with pentamidine ([2]; low expression biomarkers): increased nearly to normal levels
